A value given as a limit tells only on which side of the number the result lay.

Test [1] deals with T1, PGD2 Receptor (Homo sapiens, UniProt Q13258).
T1 construct: endogenous in cells; host or cells: washed human platelets from a healthy volunteer
T1 sequence (Q13258 1-359): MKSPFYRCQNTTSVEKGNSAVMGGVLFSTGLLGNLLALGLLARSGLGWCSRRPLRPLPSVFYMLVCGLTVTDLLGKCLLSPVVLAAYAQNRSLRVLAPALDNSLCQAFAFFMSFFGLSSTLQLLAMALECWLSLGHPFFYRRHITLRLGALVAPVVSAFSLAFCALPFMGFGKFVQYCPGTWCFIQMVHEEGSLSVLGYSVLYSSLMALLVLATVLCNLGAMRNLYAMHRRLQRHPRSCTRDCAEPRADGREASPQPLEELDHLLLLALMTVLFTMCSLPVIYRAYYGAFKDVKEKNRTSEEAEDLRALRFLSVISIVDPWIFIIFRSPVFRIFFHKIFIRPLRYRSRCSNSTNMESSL
Nature of the test: Binding to PGD2 Receptor (human platelet membrane fraction, [3H]PGD2). The following applies: 5 nM [3H]PGD2, pH 7.4, 4° C., 90 min, read-out: Inhibitory activity IC50. How it is done:
(1) Preparation of Human Platelet Membrane Fraction
Blood was collected using a plastic syringe containing 3.8% sodium citrate from the vein of healthy volunteers (adult male and female), then put into a plastic test tube and mixed by slow-reversion. The sample was then centrifuged at 1800 rpm. for 10 min at room temperature, and the supernatant containing PRP (platelet-rich plasma) was collected. The PRP was re-centrifuged at 2300 rpm, for 22 min at room temperature to obtain platelets. The platelets were homogenized using a homogenizer (Ultra-Turrax) followed by centrifugation 3 times at 20,000 rpm, 10 min at 4° C. to obtain a platelet membrane fraction. After protein determination, the membrane fraction was adjusted to 2 mg/ml and preserved in a refrigerator at -80° C. until using for the binding test.
(2) Binding to PGD2 Receptor.
To a binding-reaction solution (50 mM Tris/HCl, pH 7.4, 5 mM MgCl2) (0.2 ml) were added the human platelet membrane fraction (0.1 mg) and 5 nM [^3 H ]PGD2 (115 Ci/mmol), and the mixture was reacted at 4° C. for 90 min. After the reaction, the mixture was filtered through a glass fiber filter paper and washed several times with cooled physiologic saline, then the radioactivity retained on the filter paper was measured. The specific-binding ratio was calculated by subtracting the non-specific binding ratio which is the radio activity similarly measured in the presence of 10 μM PGD2 from the total binding. The inhibitory activity of each compound was expressed as the concentration required for 50% inhibition (IC50), which was determined by depicting a substitution curve by plotting the binding ratio (%) in the presence of each compound, where the binding ratio in the absence of a test compound is 100%.

The target of test [2] is T1, PGD2 Receptor. Nature of the test: Antagonistic Activity Against PGD2 Receptor Using Human Platelet (cAMP increased by PGD2). The test is classed as cell-based. The note with it: inhibition of cAMP increase by 0.1 μM PGD2 in washed human platelets. On the procedure: Experiment 2 Evaluation of Antagonistic Activity Against PGD2 Receptor Using Human Platelet
Peripheral blood was collected from a healthy volunteer using a syringe in which 1/9 volume of a citric acid/dextrose solution was previously added. The sample was subjected to centrifugation at 180 g for 10 min to obtain the supernatant (PRP: platelet rich plasma). The resultant PRP was washed 3 times with a washing buffer and the number of platelet was counted with a micro cell counter. A suspension adjusted to contain the platelets at a final concentration of 5×10^8 /ml was warmed at 37° C., then subjected to the pre-treatment with 3-isobutyl-1-methylxanthine (0.5 mM) for 5 min. To the suspension was added a test compound diluted at various concentration, and 10 minutes later, 0.1 μM PGD2 was added to induce the reaction 2 minutes later, hydrochloric acid was added to terminate the reaction. The platelet was destroyed with an ultrasonic homogenizer. After centrifugation, the cAMP in the supernatant was determined by radioimmunoassay. PGD2 receptor antagonism of a drug was evaluated as follows: the inhibition rate regarding cAMP increased by the addition of PGD2 was determined at each concentration, and the concentration of the (drug required for 50% inhibition (IC50) was calculated. The results are shown below.

Test [3] has as its system Hartley male guinea pig. Briefly: Nasal Blockage Model (intranasal pressure of OVA-sensitized guinea pigs). The format is in vivo. The following applies: 30 mg/kg orally 60 min before antigen exposure; intranasal pressure AUC 0-30 min vs vehicle. On the procedure:
Experiment Using Nasal Blockage Model
Recently, It has been paid an attention to a theory that PGD2 is one of causative substances of nasal blockage caused by allergic rhinitis, and proposed to develop an inhibitor of PGD2 biosynthesis or an antagonist to the PGD2 receptor as a drug reducing nasal blockage. Thus, as to the compounds of the present, invention. the anti-nasal blockage effect was evaluated by measuring the intranasal pressure of guinea pigs.
A 1% ovalbumin (OVA) solution was treated with an ultrasonic nebulizer to obtain an aerosol. Hartley male guinea pig was sensitized by inhaling the aerosol twice each or 10 min at one-week interval. Seven days after the sensitization, the guinea pig was exposed to an antigen to initiate the reaction. Briefly, the trachea of he guinea pig was incised under the anesthesia with pentobarbital (30 mg/kg. i.p.) and cannulas were inserted into the trachea at the pulmonary and nasal cavity sides. […] After arresting the spontaneous respiration of the guinea pig with Gallamin (2 mg/kg, i.v.), 4 ml/time of air was supplied to the snout side with an artificial respirator at the frequency of 70 times/min, and the atmospheric pressure required for the aeration was measured by using a transducer fitted at the branch. The measured pressure was used as a parameter of the nasal cavity resistance. […]

The target in test [4] is T2, TXA2 Receptor (Homo sapiens, UniProt P21731).
T2 construct: The human platelet fraction was prepared in accordance with Experiment 1 (1); from tissue; host or cells: human platelets from blood of healthy volunteers (membrane fraction)
T2 sequence (P21731 1-343): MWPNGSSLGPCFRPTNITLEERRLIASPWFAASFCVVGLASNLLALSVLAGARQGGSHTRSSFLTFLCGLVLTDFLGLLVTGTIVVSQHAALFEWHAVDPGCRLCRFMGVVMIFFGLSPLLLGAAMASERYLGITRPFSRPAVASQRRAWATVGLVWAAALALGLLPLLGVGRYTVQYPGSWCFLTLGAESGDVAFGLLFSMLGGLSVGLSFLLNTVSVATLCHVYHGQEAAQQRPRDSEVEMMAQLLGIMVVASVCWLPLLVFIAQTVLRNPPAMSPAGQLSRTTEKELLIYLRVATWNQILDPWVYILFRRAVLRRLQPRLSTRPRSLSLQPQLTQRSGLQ
Briefly: Binding to TXA2 Receptor (human platelet membrane fraction, [3H](+)-S-145 sodium salt). The note with it: 2 nM [3H](+)-S-145 sodium salt, pH 7.4, room temperature, 90 min, read-out: Inhibitory activity to TXA2 Receptor: IC50. How it is done: (I) Preparation of Human Platelet Membrane Fraction
The human platelet fraction was prepared in accordance with Experiment 1 (1).
(2) Binding to TXA2 Receptor
To a binding-reaction solution (50 mM Tris/HCl, pH 7.4. 10 mM MgCl2) (0.2 ml) were added the human platelet membrane fraction (0.05 mg) and 2 nM Sodium [^3 H](+)-(5Z)-7-[3-endo-[(phenylsulfonyl)aminol]bicyclo[2.2. 1]hept-2-exo-iy]heptenoate (Japanese Patent Publication (Kokoku) No.79060/1993, hereinafter referred to as (+)-S-145 sodium salt) (26.4 Ci/mmol), and the mixture was reacted at room temperature for 90 min. After the reaction, the resultant mixture was filtered through a glass fiber filter paper and washed several times with cooled physiological saline, then the radioactivity retained on the filter paper was measured. The specific-binding ratio was calculated by subtracting the non-specific binding ratio (the radio activity similarly determined in the presence of 10 μM (+)-S-145 sodium salt) from the total binding. The inhibitory activity of each compound was expressed as the concentration required for 50% inhibition (IC50), which was determined by depicting a substitution curve by plotting the binding ratio (%) in the presence of each compound, where the binding ratio in the absence of a test compound is 100%.

Broadly, the IC50 is the concentration that inhibits the measured activity by half. For the molecule `O=C(O)CCC/C=C\C[C@H]1[C@@H]2CC[C@@H](C2)[C@@H]1NC(=O)c1csc2ccc(O)cc12` [Compd. 1, (5Z)-7-{(1R, 2S, 3S, 4S)-3-(5-Hydroxybenzo[b]thiophen-3-carbonylamino)-bicyclo[2.2. 1]hept-2-yl}-5-heptenoic acid], the IC50 was determined as 9.6 nM in test [1] and 3.9 nM in test [2]. The “Inhibitory Rate (%)” value in test [3] turned out to be 74%.
As to `O=C(O)CCC/C=C\C[C@H]1[C@@H]2CC[C@@H](C2)[C@@H]1NC(=O)c1ccsc1` [Compd. 2, (5Z)-7-{(1R, 2S, 3S, 4S)-3-(Thiophen-3-carbonylamino)-bicyclo[2.2.1]hept-2-yl}-5-heptenoic acid], the IC50 in test [1] is 31 nM; in test [2], 360 nM.
In the same order, the values of `O=C(O)CCC/C=C\C[C@H]1[C@@H]2CC[C@@H](C2)[C@@H]1NC(=O)c1cccc2ccsc12` [Compd. 3, (5Z)-7-{(1R, 2S, 3S, 4S)-3-(Benzo[b]thiophen-7-carbonylamino)-bicyclo[2.2. 1]hept-2-yl}-5-heptenoic acid] are 87 nM and 22 nM.
On to `O=C(O)CCC/C=C\C[C@H]1[C@@H]2CC[C@@H](C2)[C@@H]1NC(=O)c1csc2ccccc12` [Compd. 4, (5Z)-7-{(1R, 2S, 3S, 4S)-3-(Benzo[b]thiophen-3-carbonylamino)-bicyclo[2.2. 1]hept-2-yl}-5-heptenoic acid], for which the IC50 stood at 8.2 nM in test [1], 41 nM in test [2] and 3800 nM in test [4].
In the case of `O=C(O)CCC/C=C\C[C@H]1[C@@H]2CC[C@@H](C2)[C@@H]1NC(=O)c1csc2ccc(F)cc12` [Compd. 5, (5Z)-7-{(1R, 2S, 3S, 4S)-3-(5-Fluorobenzo[b]thiophen-3-carbonylamino)-bicyclo[2.2. 1]hept-2-yl}-5-heptenoic acid], the IC50 in test [1] came to 57 nM; in test [2], 34 nM.
Take `O=C(O)CCC/C=C\C[C@H]1[C@@H]2CC[C@@H](C2)[C@@H]1NC(=O)c1csc2cc(O)ccc12` [Compd. 6]: the half-inhibitory concentration (IC50) worked out at 180 nM in test [1] and 8.2 nM in test [2].
As for `O=C(O)CCC/C=C\C[C@@H]1[C@H]2CC[C@H](C2)[C@H]1NC(=O)c1csc2ccc(O)cc12` [Compd. 18, (5Z)-7-{(1S, 2R, 3R, 4R)-3-(5-Hydroxybenzo[b]thiophen-3-carbonylamino)-bicyclo[2.2. 1]hept-2-yl}-5-heptenoic acid], the 50% inhibitory concentration (IC50) in test [1] is 5.5 nM; in test [2], above 1000 nM; in test [4] it was 1800 nM.

Values taken from patent US6225336A, “Compounds having [2.2.1] bicyclo skeleton” (Shionogi & Co., Ltd., priority 1997, dated 2001).
